ChEMBL document CHEMBL1201862, “PubChem BioAssay data set” (2004)
Blank lines part the entries; values can stand above or below the compound they belong to. Activity calls are given as the source filed them.

What was measured:
[1] = molecular target: T1, Caspase-6 (Homo sapiens, UniProt P55212); assay: human caspase-6 inhibitors, dose response, biochemical, VEID-R110 fluorescence, cherry-pick (AID 720632)
T1 sequence (P55212 whole entry): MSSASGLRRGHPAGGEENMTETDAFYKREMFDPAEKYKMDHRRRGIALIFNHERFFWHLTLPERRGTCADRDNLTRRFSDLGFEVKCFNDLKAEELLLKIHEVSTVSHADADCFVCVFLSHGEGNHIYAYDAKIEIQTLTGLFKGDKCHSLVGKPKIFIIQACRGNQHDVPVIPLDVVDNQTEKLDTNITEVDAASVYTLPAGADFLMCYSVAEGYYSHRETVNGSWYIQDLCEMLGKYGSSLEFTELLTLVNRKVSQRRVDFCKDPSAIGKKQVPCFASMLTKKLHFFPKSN

[2] = THP-1 cell cytotoxicity, dose response, cytotoxicity control for Vif-APOBEC3G degradation inhibitor project, THP-1 cells (AID 1117359); type: functional; details: Human immunodeficiency virus 1, THP-1
[3] = molecular target: T2, Protein Tat (Human immunodeficiency virus type 1 group M subtype B (isolate HXB2)(HIV-1), UniProt P04608); type: functional;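 also: tat binding to TAR RNA read out by fluorescence polarization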
T2 sequence (P04608 whole entry): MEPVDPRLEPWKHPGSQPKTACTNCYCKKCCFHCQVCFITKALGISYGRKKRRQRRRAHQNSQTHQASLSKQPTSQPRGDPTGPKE

[4] = molecular target: T3, Aminopeptidase N (Plasmodium falciparum FcB1/Columbia, UniProt O96935); assay: P. falciparum M1AAP inhibitors, biochemical, fluorogenic H-Leu-NHMec substrate, 1536-well (AID 1445); set-up: species or system Plasmodium falciparum 3D7, 3D7
T3 sequence (O96935 whole entry): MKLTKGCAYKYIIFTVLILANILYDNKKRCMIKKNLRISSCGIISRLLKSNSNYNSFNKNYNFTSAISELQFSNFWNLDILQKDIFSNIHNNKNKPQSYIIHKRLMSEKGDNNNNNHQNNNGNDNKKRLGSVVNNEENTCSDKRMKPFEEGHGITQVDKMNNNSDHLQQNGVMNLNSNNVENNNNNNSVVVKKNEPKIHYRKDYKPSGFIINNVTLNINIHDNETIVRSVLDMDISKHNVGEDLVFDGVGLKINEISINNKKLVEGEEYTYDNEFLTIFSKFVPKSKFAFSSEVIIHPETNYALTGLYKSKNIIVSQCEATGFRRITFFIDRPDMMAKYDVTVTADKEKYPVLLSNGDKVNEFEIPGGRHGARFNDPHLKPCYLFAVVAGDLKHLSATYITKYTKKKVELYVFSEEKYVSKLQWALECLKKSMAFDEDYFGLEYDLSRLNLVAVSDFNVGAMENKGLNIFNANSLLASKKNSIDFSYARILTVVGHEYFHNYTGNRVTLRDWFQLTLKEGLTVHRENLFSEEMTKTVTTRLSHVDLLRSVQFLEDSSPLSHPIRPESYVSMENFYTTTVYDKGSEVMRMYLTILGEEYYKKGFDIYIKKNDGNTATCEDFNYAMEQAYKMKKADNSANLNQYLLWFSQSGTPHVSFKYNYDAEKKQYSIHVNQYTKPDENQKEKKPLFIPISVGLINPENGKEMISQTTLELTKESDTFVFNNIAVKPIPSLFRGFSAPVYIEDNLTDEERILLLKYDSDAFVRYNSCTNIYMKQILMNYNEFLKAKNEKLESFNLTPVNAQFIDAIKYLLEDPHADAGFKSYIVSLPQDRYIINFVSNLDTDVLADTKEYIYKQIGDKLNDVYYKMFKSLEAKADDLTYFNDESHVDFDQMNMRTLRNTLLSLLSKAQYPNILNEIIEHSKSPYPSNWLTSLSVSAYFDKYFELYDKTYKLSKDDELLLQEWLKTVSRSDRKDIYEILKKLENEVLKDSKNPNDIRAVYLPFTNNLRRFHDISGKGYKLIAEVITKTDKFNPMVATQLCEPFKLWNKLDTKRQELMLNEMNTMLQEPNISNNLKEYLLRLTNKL

[5] = control 3'UTR Renilla luciferase suppression, dose response, counter-screen for Shn3 inhibitor project, cell-based, Clone20-Shn3RL, cherry-picked (AID 624133); type: functional
[6] = Shn3 3'UTR reporter inhibitors, dose response, cell-based, Clone20 osteoblasts, firefly luciferase, cherry-picked (AID 624132); type: functional;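 also: firefly luciferase luminescence from reporter carrying the Shn3 3'UTR in osteoblasts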
[7] = HepG2 cell cytotoxicity, dose response, cytotoxicity control for Shn3 inhibitor project, CellTiter-Glo, cherry-picked (AID 624134); type: functional, cell-based
[8] = molecular target: Paired box protein Pax-8 (Homo sapiens, UniProt Q06710); assay: inhibitors of PAX8-driven TPO luciferase reporter, dose response, RMG-I cells, cherry-pick (AID 687027); type: functional, cell-based;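 also: luciferase reporter driven by Pax8 target thyroperoxidase promoter measured by SteadyGlo luminescence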
Sequence of Paired box protein Pax-8 (Q06710 whole entry): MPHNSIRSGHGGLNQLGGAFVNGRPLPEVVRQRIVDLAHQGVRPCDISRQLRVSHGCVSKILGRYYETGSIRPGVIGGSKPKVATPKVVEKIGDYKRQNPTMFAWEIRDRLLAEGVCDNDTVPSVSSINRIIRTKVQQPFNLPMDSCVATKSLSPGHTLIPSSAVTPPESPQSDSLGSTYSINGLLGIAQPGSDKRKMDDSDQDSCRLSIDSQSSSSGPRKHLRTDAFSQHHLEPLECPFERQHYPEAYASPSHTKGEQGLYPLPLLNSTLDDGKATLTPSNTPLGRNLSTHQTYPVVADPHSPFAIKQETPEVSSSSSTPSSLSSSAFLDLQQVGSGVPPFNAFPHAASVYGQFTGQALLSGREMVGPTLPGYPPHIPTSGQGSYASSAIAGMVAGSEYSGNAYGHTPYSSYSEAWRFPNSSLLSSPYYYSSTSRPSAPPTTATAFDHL

[9] = molecular target: Heat shock protein HSP 90-alpha (Homo sapiens, UniProt P07900); type: functional, organism-based
[10] = cytotoxicity toward NIH3T3 fibroblasts, dose response, counter-screen, cell-based, ATP luminescence, mouse fibroblasts (AID 2010); type: functional;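 also: cells exposed to compound for about 90 hours before reading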
[11] = inhibitors of intracellular T. cruzi replication, confirmation, NIH3T3 host cells, beta-gal luminescence (AID 2044); type: functional, cell-based;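 also: intracellular parasites grown in NIH/3T3 mouse fibroblasts as host cells; luminescent beta-galactosidase reporter signal from transgenic T. cruzi replicating inside host cells; inhibitors lower the luminescence signal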
[12] = tested on: BJ; assay: cells; type: functional, cell-based; details: Homo sapiens
[13] = tested on: BJ; assay: cytotoxicity toward BJ-TERT fibroblasts, dose response, cell-based, RAS-independent, luminescence (AID 1933); type: functional; details: Homo sapiens
[14] = C. albicans growth with fluconazole, confirmation, fluorescence, retest (AID 2467); type: functional, cell-based
[15] = NIH-3T3 fibroblast cytotoxicity, dose response, cytotoxicity control, cell-based, fluorescence, Alamar Blue, secondary assay (AID 2327); type: functional;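 also: NIH-3T3 mouse fibroblasts cultured with fluconazole at 8 µg/mL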
[16] = cytotoxicity toward DRD oncogenic fibroblasts, dose response, cell-based, non-viral oncogenic, luminescence (AID 1934); type: functional; details: Homo sapiens
[17] = tested on: BJ; assay: cytotoxicity toward BJ-TERT-LT-ST fibroblasts, dose response, cell-based, RAS-independent, luminescence (AID 1935); type: functional; details: Homo sapiens;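 also: BJ fibroblasts immortalized with TERT plus LT and ST oncogenes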
[18] = molecular target: T4, Coagulation factor XII (Homo sapiens, UniProt P00748); type: functional;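 also: activated factor XIIa alpha cleaving a fluorogenic AMC peptide substrate; inhibitor potency from loss of enzyme activity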
T4 sequence (P00748 whole entry): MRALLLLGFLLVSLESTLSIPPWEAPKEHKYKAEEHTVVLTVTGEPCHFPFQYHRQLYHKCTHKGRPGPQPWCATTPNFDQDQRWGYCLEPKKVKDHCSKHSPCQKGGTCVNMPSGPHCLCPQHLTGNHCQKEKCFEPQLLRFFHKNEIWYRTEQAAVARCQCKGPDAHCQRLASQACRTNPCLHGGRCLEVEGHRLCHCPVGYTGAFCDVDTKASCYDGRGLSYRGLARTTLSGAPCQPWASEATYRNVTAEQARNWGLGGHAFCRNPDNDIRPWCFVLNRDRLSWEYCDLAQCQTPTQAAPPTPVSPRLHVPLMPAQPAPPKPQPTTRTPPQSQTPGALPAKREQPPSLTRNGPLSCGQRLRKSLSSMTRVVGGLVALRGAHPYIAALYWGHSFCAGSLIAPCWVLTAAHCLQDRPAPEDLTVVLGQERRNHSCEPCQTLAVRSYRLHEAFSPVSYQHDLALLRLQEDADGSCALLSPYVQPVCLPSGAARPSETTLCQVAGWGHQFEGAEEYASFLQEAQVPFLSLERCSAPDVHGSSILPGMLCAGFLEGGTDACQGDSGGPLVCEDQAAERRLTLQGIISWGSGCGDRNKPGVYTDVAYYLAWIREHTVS

[19] = molecular target: T5, Corticotropin-releasing factor receptor 2/Corticotropin-releasing factor-binding protein (Homo sapiens, UniProt P24387+Q13324); assay: activators of CRF receptor 2 with binding protein – uHTS hits, confirmation (AID 602473); type: functional; details: read-out: EC50_Mean
T5 sequence (Q13324 whole entry): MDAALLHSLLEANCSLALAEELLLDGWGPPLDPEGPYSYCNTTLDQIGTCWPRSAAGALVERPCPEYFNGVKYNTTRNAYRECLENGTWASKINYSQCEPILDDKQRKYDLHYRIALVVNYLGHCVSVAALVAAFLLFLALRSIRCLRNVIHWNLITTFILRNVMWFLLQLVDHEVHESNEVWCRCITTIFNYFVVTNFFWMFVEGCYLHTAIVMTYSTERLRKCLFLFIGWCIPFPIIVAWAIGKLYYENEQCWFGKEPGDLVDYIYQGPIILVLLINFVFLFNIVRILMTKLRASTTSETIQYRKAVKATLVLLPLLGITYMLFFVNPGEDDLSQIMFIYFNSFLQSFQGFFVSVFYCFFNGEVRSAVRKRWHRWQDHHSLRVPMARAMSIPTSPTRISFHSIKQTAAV
T5 sequence (P24387 whole entry): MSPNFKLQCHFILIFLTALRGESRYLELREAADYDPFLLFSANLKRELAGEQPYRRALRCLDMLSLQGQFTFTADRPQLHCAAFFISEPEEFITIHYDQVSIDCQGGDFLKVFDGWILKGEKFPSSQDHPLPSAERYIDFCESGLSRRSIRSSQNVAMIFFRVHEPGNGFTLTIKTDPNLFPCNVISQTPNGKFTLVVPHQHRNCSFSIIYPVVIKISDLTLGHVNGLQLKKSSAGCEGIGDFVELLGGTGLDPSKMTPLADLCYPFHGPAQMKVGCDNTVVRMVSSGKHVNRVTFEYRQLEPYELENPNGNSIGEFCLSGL

SMILES: CCCCCCN1C[C@@H](n2cc(-c3ccc(F)cc3)nn2)[C@H](O)C[C@@H]1c1ccc(Cl)cc1
AC50 [5]: 21.5 µM (active)
AC50 [6]: 12.5 µM (active)
AC50 [7]: 41.6 µM (active)
AC50 [8]: 9.71 µM (active)

SMILES: CCC(C)(C)n1nnnc1C(c1cccnc1)N1CCC(Cc2ccccc2)CC1 (stereo not drawn)
AC50 [9]: 1.09 µM (active)
EC50 [10]: 49 µM (active)
EC50 [11]: 0.151 µM (active)

SMILES: CN(C)C=O.NS(=O)(=O)c1cccc(NC(=O)CSc2nc(O)c3c(C(F)(F)F)cc(-c4cccs4)nc3n2)c1
IC50 [4]: 30.5 µM (active)

SMILES: CCOc1ccc(-c2c(C)[n+](-c3ccc(OCC)cc3)c3n2CCCCC3)cc1.[O-][Cl+3]([O-])([O-])[O-]
EC50 [12]: 8.54 µM (active)
EC50 [13]: 9.44 µM (inconclusive)
EC50 [14]: 2.36 µM (active)
EC50 [15]: 39.3 µM (active)
EC50 [16]: 13.5 µM (inconclusive)
EC50 [17]: 17.1 µM (active)
IC50 [18]: > 50 µM (inactive)

SMILES: CC(C)OC(=O)c1ccc(NCc2cc(O)ccc2O)cc1
AC50 [9]: 25 µM (active)
AC50 [5]: 5.28 µM (active)
AC50 [6]: 1.9 µM (active)
AC50 [7]: 7.81 µM (active)

Second part, led by results:

AC50 [1]: 42.2 µM (active)
SMILES: O=C(COC(=O)c1ccc([N+](=O)[O-])o1)NCCc1ccccc1

IC50 [3]: > 100 µM (inconclusive)
SMILES: CCC(c1nnnn1Cc1ccco1)N(Cc1ccccc1OC)Cc1cc2cc(C)ccc2nc1O (stereo not drawn)
CC50 [2]: > 40 µM (active)

IC50 [4]: 51.2 µM (active)
SMILES: Nc1nnc(SCC(=O)Nc2ccccc2-c2ccccc2)[nH]1

AC50 [1]: 22.4 µM (active)
SMILES: CC(NC(=O)CN1c2cccc3cccc(c23)S1(=O)=O)c1ccc(S(N)(=O)=O)cc1 (stereo not drawn)

EC50 [19]: > 53 µM (inactive)
AC50 [9]: 3.02 µM (active)
SMILES: COCCOC(=O)/C(=C/c1ccc(OC(=O)c2ccccc2)cc1)C(C)=O

AC50 [9]: 4.74 µM (active)
SMILES: Cc1cccc(N2CCN(S(=O)(=O)c3c(C)noc3/C=C/N(C)C)CC2)c1C

IC50 [4]: 35.7 µM (active)
SMILES: CCOC(=O)CC1C(=O)NCCN1c1nc2ccc(C)cn2c(=O)c1/C=C1\SC(=S)N(CC(C)C)C1=O (stereo not drawn)
